From patent US6596289B1, “Anti-cellulite pantyhose” (priority 1998, dated 2003)

Experiment: Extraction and measurement of candidate molecules from loaded pantyhose in buffer
Assay type: physicochemical
Conditions: for bonding to the fabric: conclusion from data of Table I; for Micrograms per/cm^2 @ 2 hr (amount extracted) / Micrograms per/cm @ 4 hr (amount extracted): swatch of treated fabric immersed in buffer solution; for Micrograms per/cm @ 4 hr (amount extracted): four hours
Method: Step 1: Determining UV Max Absorbance nm of Test Substances
Prepare 0.2% aqueous solutions of the substance to be tested, and run a UV/VIS scan on a scanning spectrophotometer. Note the peak absorbance level of the scan. The wave length at which this occurs is the UV Max value for that candidate.
Step 2: Running Standard Curves of Candidate Molecules
Prepare standards of the test substances at the following concentrations: 400 uM, 200 uM, 100 uM, 50 uM and 25 uM. Read at the appropriate wavelength. Plot the absorbance readings vs candidate concentration to check linearity.
Step 3: Loading Pantyhose with Candidate Molecules a. Wash pantyhose two times with water. b. Treat pantyhose with 1% solution of polyethylenimine (PEI) with constant agitation for 30 minutes. c. Wash pantyhose with water. d. Treat pantyhose with 0.2% of the test substance with constant agitation for three hours. e. Wash pantyhose and allow to dry.
Step 4: Extraction and Measurement of Candidate Molecules from Pantyhose Six sections were removed from each pair of hose, two sections from each of the foot, calf and thigh. A two piece, interlocking circular template was used. This template provided a way to obtain consistent sample size and also held the hose sections in position for sample extraction. Each template containing the pantyhose section was placed in 10 ml of buffer for 4 hours. An untreated pair of pantyhose was used as the blank and tested the same as the samples. At the end of two hours, and again at 4 hours, the buffer solution was read at the appropriate wave length using a quartz curette. Results were calculated from the standard curve and reported in micrograms/square centimeter (ug/cm^2).

bonding to the fabric	Micrograms per/cm^2 @ 2 hr (amount extracted) [Micrograms per/cm^2]	Micrograms per/cm @ 4 hr (amount extracted) [Micrograms per/cm]	Compound
most strongly bonded	15.0	15.1	O=c1c(-c2ccc(O)cc2)coc2cc(O)cc(O)c12 [Genistein, 4′,5,7-trihydroxyisoflavone]
bind in adequate degrees	0.6	0.7	O=C1O[C@H]([C@@H](O)CO)C(O)=C1O [Ascorbic Acid, ascorbic acid]
bind in adequate degrees	1.2	1.5	O=C(O)CCCC[C@@H]1CCSS1 (racemic) [Lipoic Acid, lipoic acid]
